Tests used:
post-partum mothers = assay: Depressive behaviors in post-partum mothers; type: in vivo; settings: MK-0677 treatment vs vehicle control (FIG. 1)
Source text: FIG. 1 is a graph depicting depressive behaviors in post-partum mothers. […] The data is shown in Figure, a bar graph depicting depressive behaviors in post-partum mothers in response to vehicle control of MK-0677 treatment. Experiments were designed to determine the effects of elevated ghrelin activity on the fetus.

offspring = assay: Anhedonia (sucrose preference) in offspring after perinatal / in-womb exposure; type: in vivo
Source text: FIG. 2 is a diagram depicting the protocol for analysis of babies following birth. FIG. 3 depicts the design of the study with protocols involving vehicle control, low MK0677 or high MK0677 treatment. FIG. 4 is a graph depicting the effects of perinatal exposure to MK0677 on female (dark bar) versus male (lighter gray bar) offspring. V refers to a vehicle control. H refers to high MK0677 exposure levels. FIG. 5 is a graph depicting the effects of exposure to MK0677 in the womb on offspring. The first set of experiments was designed to determine the degree of anhedonia in offspring when raised by an MK-treated mom. Anhedonia is the inability of a subject to experience pleasure from activities usually found enjoyable. A first experiment was conducted to show the effects of perinatal exposure to MK0677 on female versus male offspring. V refers to a vehicle control. H refers to high MK0677 exposure levels. […] Additionally the foster mother had no effect. […] Another study involved determining the effects of exposure to MK0677 in the womb on offspring.

With `CC(C)(N)C(=O)N[C@H](COCc1ccccc1)C(=O)N1CCC2(CC1)CN(S(C)(=O)=O)c1ccccc12` [MK-0677] as the compound, how does the maternal depressive behaviors (post-partum mothers) read?
The maternal depressive behaviors was “enhanced maternal depressive behaviors”.

And the “sucrose preference in offspring” value (offspring; offspring from mothers exposed to high MK levels (n=11) vs controls (n=12), t-test, p=0.03 (FIG. 5))?
The value was “significantly lower compared to controls”.

And the “degree of anhedonia in offspring: female versus male response” value (offspring; perinatal exposure, high MK0677 vs vehicle, female versus male offspring (FIG. 4))?
The value was “no difference was seen between the response of male and female babies”.

What about the “degree of anhedonia in offspring: foster versus biological mother” value (offspring; perinatal exposure, high MK0677 vs vehicle, foster mother had no effect (FIG. 4)) of the same compound?
Its value is “an influence was observed for the biological mother”.

What about the “preference of sucrose solution to water (vs. 50%)” value (offspring; pups from MK mothers, pups from vehicle-treated mothers significantly preferred sucrose (p=0.046 vs. 50%)) of the same compound?
The value was “did not”.
